Laboratory results taken from patent US20090004232A1, “BIOACTIVE PHARMACEUTICAL/COSMETIC COMPOSITIONS AND MIXED SOLUBILIZATION PROCESS FOR THE FORMULATION THEREOF” (priority 2005, published 2009).

Assay: Physical stability of the emulsions on storage (phase shift, recrystallization / crystal growth of the active principle)
Type: physicochemical
Procedure: According to the invention, another physical stability parameter observed is, in particular, the absence of recrystallization phenomenon at ambient temperature and at 4° C., over three months.
In the present text, the expression “active principle in dissolved form” means a molecular state dispersion in a liquid, no crystallization of the active principle being visible to the naked eye nor even using a crossed polarization optical microscope, or using other more accurate techniques such as electron microscopy. Preferably, the bioactive principle particles have a size below 1 nm.
Preferably, according to the invention, the expression “active principle in dissolved form” means a molecular state dispersion in a liquid for which no crystallization of the active principle is visible to the naked eye or using an optical microscope.

## CC/C(=C\C=C\C(O)(CC)CC)c1cccc(OCc2ccc(CO)c(CO)c2)c1 [(4E,6E)-7-[3-(3,4-bishydroxymethylbenzyloxy)phenyl]-3-ethylnona-4,6-dien-3-ol]
Active principle solubilized in a single phase (hydrophilic phase or lipophilic phase)
  physical stability of the emulsion over time: have not made it possible to obtain an emulsion that was physically stable over time
Single phase solubilization, storage at 4° C.
  crystal growth phenomena of the active principle: appeared from the first month
